Measurements taken from US9926317B2, “Inhibitors of the renal outer medullary potassium channel” (Merck Sharp & Dohme Corp., priority 2014, dated 2018).

Target: T1, ROMK (Kir1.1) channel (Homo sapiens, UniProt P48048)
T1 sequence (P48048 1-391): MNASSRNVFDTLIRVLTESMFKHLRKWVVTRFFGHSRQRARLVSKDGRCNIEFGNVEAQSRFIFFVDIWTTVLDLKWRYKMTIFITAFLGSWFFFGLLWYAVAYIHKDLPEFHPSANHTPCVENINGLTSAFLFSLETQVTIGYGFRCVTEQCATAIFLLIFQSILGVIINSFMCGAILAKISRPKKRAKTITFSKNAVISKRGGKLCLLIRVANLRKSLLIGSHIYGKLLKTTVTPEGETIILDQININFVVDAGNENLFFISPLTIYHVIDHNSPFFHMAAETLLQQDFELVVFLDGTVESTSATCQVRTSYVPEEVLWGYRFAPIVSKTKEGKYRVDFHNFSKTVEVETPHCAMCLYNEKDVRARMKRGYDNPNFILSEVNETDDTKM
Assay: Thallium Flux Assay
Format: cell-based
Source text: The compounds of Formula I according to the invention are inhibitors of ROMK, and therefore could be used as diuretic and/or natriuretic agents. ROMK inhibitors may be used to help to increase urination and increase urine volume and also to prevent or reduce reabsorption of sodium in the kidneys leading to increased excretion of sodium and water. Therefore, the compounds could be used for treatment or prophylaxis or both of disorders that benefit from increased excretion of water and sodium from the body. Accordingly, the compounds of this invention could be used in a method for inhibiting ROMK comprising administering a compound of Formula I in a ROMK-inhibitory effective amount to a patient in need thereof. This also encompasses the use of the compounds for inhibiting ROMK in a patient comprising administering a compound of claim 1 in a therapeutically effective amount to a patient in need of diueresis, natriuresis or both. […] Moreover, this invention also relates to the use of the compounds of Formula I or salts thereof to validate in vitro assays, for example but not limited to the Thallium Flux Assay described herein.
The following Thallium Flux Assay was performed on each of the final product compounds in the Examples.
A Thallium Flux Assay was performed on the compounds of the Examples. This assay has been described previously; see, e.g., PCT Published Application WO 2013/062900.

How did the IC50 turn out when `CC1=C(N2CCC3(CCN(C[C@H](O)c4ccc(-n5ncnn5)cc4)CC3)C2=O)COC1=O` [Example 1, (R)-8-(2-(4-(2H-tetrazol-2-yl)phenyl)-2-hydroxyethyl)-2-(4-methyl-5-oxo-2,5-dihydrofuran-3-yl)-2,8-diazaspiro[4.5]decan-1-one] was run?
Its IC50 is 7 nM.

`CC1=C(N2CCC3(CCN(C[C@@H](O)c4ccc(-n5ncnn5)cc4)CC3)C2=O)COC1=O` [Example 4, (S)-8-(2-(4-(2H-tetrazol-2-yl)phenyl)-2-hydroxyethyl)-2-(4-methyl-5-oxo-2,5-dihydrofuran-3-yl)-2,8-diazaspiro[4.5]decan-1-one] was tested. Which IC50 did it give?
Its IC50 is 7 nM.

With `CC1=C(N2CCC3(CCN(CC(O)c4ccc(-n5cnnc5)cc4)CC3)C2=O)COC1=O` (racemic) [Example 2, 8-(2-(4-(4H-1,2,4-triazol-4-yl)phenyl)-2-hydroxyethyl)-2-(4-methyl-5-oxo-2,5-dihydrofuran-3-yl)-2,8-diazaspiro[4.5]decan-1-one] as the compound, how does the IC50 read?
Its IC50 is 176 nM.

Which IC50 does the source give for `C[C@H]1CC2(CCN(C[C@H](O)c3ccc(-n4ncnn4)cc3)CC2)C(=O)N1C1=CC(=O)OC1` [Example 6, (S)-8-((R)-2-(4-(2H-tetrazol-2-yl)phenyl)-2-hydroxyethyl)-3-methyl-2-(5-oxo-2,5-dihydrofuran-3-yl)-2,8-diazaspiro[4.5]decan-1-one] here?
The IC50 was 5 nM.

`C[C@H]1CC2(CCN(C[C@@H](O)c3ccc(-n4ncnn4)cc3)CC2)C(=O)N1C1=CC(=O)OC1` [Example 5, (S)-8-((S)-2-(4-(2H-tetrazol-2-yl)phenyl)-2-hydroxyethyl)-3-methyl-2-(5-oxo-2,5-dihydrofuran-3-yl)-2,8-diazaspiro[4.5]decan-1-one] was tested. Which IC50 did it give?
The IC50 was 3 nM.

For `CC1=C(N2CCC3(CCN(CC(O)c4ccc(-n5cnnc5)nc4)CC3)C2=O)COC1=O` (racemic) [Example 3, 8-(2-(6-(4H-1,2,4-triazol-4-yl)pyridin-3-yl)-2-hydroxyethyl)-2-(4-methyl-5-oxo-2,5-dihydrofuran-3-yl)-2,8-diazaspiro[4.5]decan-1-one], which IC50 is on record?
Its IC50 is 248 nM.
